ChEMBL document CHEMBL1862790, “Optimisation of fenarimol series for the treatment of Chagas disease”

Tests used:
[1] = DNDI: Cytotoxicity against L-6 rat myoblasts from skeletal muscle cells; details: L6 rat skeletal muscle myoblast cells, IC50
Trypanosoma cruzi [2] = assay: microbe, parasite or virus in culture; format: functional, Tulahuen LacZ, Clone C4; details: Trypanosoma cruzi, Tulahuen LacZ, Clone C4
Trypanosoma cruzi [3] = assay: microbe, parasite or virus in culture; format: functional, organism-based, Tulahuen LacZ, Clone C4; details: Trypanosoma cruzi, Tulahuen LacZ, Clone C4

| Compound | IC90 (Trypanosoma cruzi [2]) [µM] | IC50 (Trypanosoma cruzi [3]) [µM] | IC50 [1] [µM] |
| --- | --- | --- | --- |
| Cc1noc(C)c1C(=O)NC1CCN(C(c2ccc(C(F)(F)F)cc2)c2cccnc2)CC1 (stereo not drawn) | 0.028 | 0.009 | > 100 |
| Cc1nc(C(=O)NC2CCN(C(c3ccc(C(F)(F)F)cc3)c3cccnc3)CC2)co1 (stereo not drawn) | 0.044 | 0.0195 | 56.4 |
| Cc1noc(C)c1C(=O)N1CCC(NC(c2ccc(C(F)(F)F)cc2)c2cncs2)CC1 (stereo not drawn) | 0.515 | 0.141 | > 100 |
| CC(C)(C)NC(=O)N1CCC(NC(c2ccc(C(F)(F)F)cc2)c2cncs2)CC1 (stereo not drawn) | 0.128 | 0.068 | > 100 |
| Cc1nocc1C(=O)NC1CCN(C(c2ccc(C(F)(F)F)cc2)c2cccnc2)CC1 (stereo not drawn) | 0.176 | 0.0155 | 65.3 |
| Cn1ccnc1C(=O)N1CCC(NC(c2ccc(C(F)(F)F)cc2)c2cccnc2)CC1 (stereo not drawn) | 0.208 | 0.0815 | > 100 |
| Cc1nc(C(=O)NC2CCN(C(c3ccc(C(F)(F)F)cc3)c3cccnc3)CC2)cs1 (stereo not drawn) | 0.041 | 0.0175 | 43.8 |
| OC(c1ccc(C(F)(F)F)cc1)(c1cncc(Cl)c1)c1ccc(Cl)cc1F (stereo not drawn) | > 1 | > 1 | 78.7 |
| O=C(c1ccccc1)N1CC(NC(c2ccc(C(F)(F)F)cc2)c2cccnc2)C1 (stereo not drawn) | 0.72 | 0.189 | 83.8 |
| CCn1nc(C)cc1C(=O)N1CCC(NC(c2ccc(C(F)(F)F)cc2)c2cccnc2)CC1 (stereo not drawn) | 0.207 | 0.0705 | > 100 |
| CCn1nc(C)cc1C(=O)NC1CCN(C(c2ccc(C#N)cc2)c2cccnc2)CC1 (stereo not drawn) | 0.933 | 0.504 | > 100 |
| Cc1ncsc1C(=O)N1CC(NC(c2ccc(C(F)(F)F)cc2)c2cccnc2)C1 (stereo not drawn) | 0.553 | 0.186 | > 100 |
| N#Cc1ccc(C(c2cccnc2)N2CCC(NC(=O)c3cc[nH]n3)CC2)cc1 (stereo not drawn) | 0.917 | 0.448 | > 100 |
| Cc1cc(C(=O)NC2CCN(C(c3ccc(C(F)(F)F)cc3)c3cccnc3)CC2)n(C)n1 (stereo not drawn) | 0.0285 | 0.012 | 54.6 |
| FC(F)(F)c1ccc(C(NC2CCN(c3ncccn3)CC2)c2cscn2)cc1 (stereo not drawn) | > 1 | > 1 | 88.1 |
| Cc1ncsc1C(=O)N1CCN(C(c2cccnc2)c2ccc(C(F)(F)F)cc2F)CC1 (stereo not drawn) | 0.131 | 0.0585 | 96.9 |
| O=C(c1ccccc1)N1CC(CNC(c2ccc(C(F)(F)F)cc2)c2cccnc2)C1 (stereo not drawn) | 0.143 | 0.067 | > 100 |
| Cc1n[nH]c(C)c1C(=O)N1CCC(NC(c2ccc(C(F)(F)F)cc2)c2cccnc2)CC1 (stereo not drawn) | 0.149 | 0.0265 | > 100 |
| Cc1ncsc1C(=O)N1CCC(NC(c2ccc(C(F)(F)F)cc2)c2cncs2)CC1 (stereo not drawn) | 0.24 | 0.0685 | > 100 |
| CC(C)(C)OC(=O)N1CC(CNC(c2ccc(C(F)(F)F)cc2)c2cccnc2)C1 (stereo not drawn) | 0.332 | 0.121 | > 100 |
| Cn1cc(C(=O)N2CCC(NC(c3ccc(C(F)(F)F)cc3)c3cccnc3)CC2)c(C(F)(F)F)n1 (stereo not drawn) | 0.281 | 0.0995 | 77.1 |

| Compound | IC90 (Trypanosoma cruzi [2]) [µM] | IC50 (Trypanosoma cruzi [3]) [µM] | IC50 [1] [µM] |
| --- | --- | --- | --- |
| Cc1noc(N2CCN(C(c3cncnc3)c3ccc(C(F)(F)F)cc3F)CC2)n1 (stereo not drawn) | 0.282 | 0.126 | > 100 |
| Cc1n[nH]c(C)c1C(=O)NC1CCN(C(c2ccc(C#N)cc2)c2cccnc2)CC1 (stereo not drawn) | 0.518 | 0.185 | > 100 |
| Cn1cc(C(=O)NC2CCN(C(c3ccc(C#N)cc3)c3cccnc3)CC2)c(C(F)(F)F)n1 (stereo not drawn) | 0.0775 | 0.0285 | > 100 |
| Nc1nc(N2CCN(C(c3cccnc3)c3ccc(C(F)(F)F)cc3F)CC2)no1 (stereo not drawn) | 0.092 | 0.0365 | 57.8 |
| FC(F)(F)c1ccc(C(NC2CN(c3ncccn3)C2)c2cccnc2)cc1 (stereo not drawn) | 0.756 | 0.115 | > 100 |
| O=C(NC1CCN(C(c2ccc(C(F)(F)F)cc2)c2cccnc2)CC1)c1ccccc1C(F)(F)F (stereo not drawn) | 0.01 | 0.006 | > 100 |
| CC(C)(C)OC(=O)N1CCC(NC(c2ccc(C(F)(F)F)cc2)c2cncs2)CC1 (stereo not drawn) | 0.0195 | 0.007 | 61.3 |
| Cn1cc(C(=O)NC2CCN(C(c3ccc(C(F)(F)F)cc3)c3cccnc3)CC2)c(C(F)(F)F)n1 (stereo not drawn) | 0.0365 | 0.016 | 53.4 |
| Cc1cc(C(=O)N2CCC(NC(c3ccc(C(F)(F)F)cc3)c3cccnc3)CC2)n(C(C)(C)C)n1 (stereo not drawn) | 0.149 | 0.0475 | 71.7 |
| O=C(c1ccccc1)N1CCC(NC(c2ccc(C(F)(F)F)cc2)c2cncs2)CC1 (stereo not drawn) | 0.106 | 0.033 | 76.1 |
| CC(C)(C)OC(=O)N1CC(NC(c2ccc(C(F)(F)F)cc2)c2cccnc2)C1 (stereo not drawn) | 0.702 | 0.095 | 62.5 |
| Cc1nc(C)c(C(=O)NC2CCN(C(c3ccc(C(F)(F)F)cc3)c3cccnc3)CC2)s1 (stereo not drawn) | 0.031 | 0.018 | 55.7 |
| OC(c1ccc(C(F)(F)F)cc1)(c1cncc(F)c1)c1ccc(Cl)cc1F (stereo not drawn) | 0.422 | 0.194 | 51.4 |
| FC(F)(F)c1ccc(C(NC2CCN(c3ncccn3)CC2)c2cncs2)cc1 (stereo not drawn) | 0.064 | 0.02 | 76.7 |
| CC(C)(C)OC(=O)N1CCN(C(c2cccnc2)c2ccc(C#N)cc2F)CC1 (stereo not drawn) | 0.94 | 0.532 | > 100 |
| COc1cncc(C(O)(c2ccc(C(F)(F)F)cc2)c2ccc(Cl)cc2F)c1 (stereo not drawn) | 0.318 | 0.122 | 67.4 |
| Cc1cc(C(=O)NC2CCN(C(c3ccc(C#N)cc3)c3cccnc3)CC2)n(C(C)(C)C)n1 (stereo not drawn) | 0.221 | 0.062 | > 100 |
| OC(c1cccnc1)(c1cncc(F)c1)c1ccc(Cl)cc1F (stereo not drawn) | 0.868 | 0.228 | > 100 |
| Cn1ccnc1C(=O)NC1CCN(C(c2ccc(C#N)cc2)c2cccnc2)CC1 (stereo not drawn) | 0.482 | 0.239 | > 100 |
| CC(C)(C)C(=O)N1CCC(NC(c2ccc(C(F)(F)F)cc2)c2cncs2)CC1 (stereo not drawn) | 0.094 | 0.034 | > 100 |
| Cc1cc(C(=O)NC2CCN(C(c3ccc(C(F)(F)F)cc3)c3cccnc3)CC2)n(C(C)(C)C)n1 (stereo not drawn) | 0.0265 | 0.0135 | > 100 |

Now from value to molecule, other results behind:

| IC90 (Trypanosoma cruzi [2]) [µM] | IC50 (Trypanosoma cruzi [3]) [µM] | Compound | IC50 [1] [µM] |
| --- | --- | --- | --- |
| 0.773 | 0.264 | Cc1cc(C(=O)N2CCC(NC(c3ccc(C(F)(F)F)cc3)c3cccnc3)CC2)n(C)n1 (stereo not drawn) | > 100 |
| 0.0249 | 0.00748 | N#Cc1ccccc1N1CCC(NC(c2cccnc2)c2ccc(Cl)cc2F)CC1 (stereo not drawn) | 39.9 |
| 0.101 | 0.029 | Cc1cnc(N2CCC(NC(c3ccc(C(F)(F)F)cc3)c3cccnc3)CC2)s1 (stereo not drawn) | 59.9 |
| 0.963 | 0.261 | Cc1cc(C(=O)NC2CCN(C(c3ccc(C#N)cc3)c3cccnc3)CC2)nn1C (stereo not drawn) | > 100 |
| 0.269 | 0.0665 | Cc1cc(C(=O)N2CCC(NC(c3ccc(C(F)(F)F)cc3)c3cccnc3)CC2)nn1C (stereo not drawn) | 58.6 |
| 0.689 | 0.197 | Cc1cc(C(=O)NC2CCN(C(c3ccc(C#N)cc3)c3cccnc3)CC2)on1 (stereo not drawn) | > 100 |
| 0.571 | 0.294 | O=C(c1cc[nH]n1)N1CCC(NC(c2ccc(C(F)(F)F)cc2)c2cccnc2)CC1 (stereo not drawn) | > 100 |
| 0.0104 | 0.00448 | N#Cc1ccc(C(c2cccnc2)N2CCC(NC(=O)c3c(F)cccc3C(F)(F)F)CC2)cc1 (stereo not drawn) | > 100 |
| 0.969 | 0.591 | Cc1nc(C(=O)N2CCC(NC(c3ccc(C(F)(F)F)cc3)c3cccnc3)CC2)co1 (stereo not drawn) | > 100 |
| 0.0545 | 0.018 | Fc1cccc(F)c1N1CCC(NC(c2ccc(C(F)(F)F)cc2)c2cccnc2)CC1 (stereo not drawn) | 54.2 |
| 0.168 | 0.0695 | Cc1nnc(N2CCC(NC(c3ccc(C(F)(F)F)cc3)c3cccnc3)CC2)s1 (stereo not drawn) | > 100 |
| 0.12 | 0.031 | N#Cc1ccnc(N2CCC(NC(c3ccc(C(F)(F)F)cc3)c3cccnc3)CC2)n1 (stereo not drawn) | 49.7 |
| 0.0335 | 0.0125 | Fc1cc(Cl)ccc1C(NC1CCN(c2c(F)cccc2F)CC1)c1cccnc1 (stereo not drawn) | 56.3 |
| > 0.1 | 0.0715 | NC(=O)c1cccc(N2CCC(NC(c3cccnc3)c3ccc(Cl)cc3F)CC2)c1 (stereo not drawn) | > 100 |
| 0.118 | 0.025 | FC(F)(F)c1ccc(C(NC2CCN(c3cncs3)CC2)c2cccnc2)cc1 (stereo not drawn) | 59.9 |
| 0.671 | 0.22 | N#Cc1ccc(C(c2cccnc2)N2CCC(NC(=O)c3ccno3)CC2)cc1 (stereo not drawn) | > 100 |
| 0.779 | 0.363 | Cc1cc(C(=O)N2CCC(NC(c3ccc(C(F)(F)F)cc3)c3cccnc3)CC2)on1 (stereo not drawn) | > 100 |
| 0.585 | 0.165 | Cc1nocc1C(=O)N1CCC(NC(c2ccc(C(F)(F)F)cc2)c2cccnc2)CC1 (stereo not drawn) | > 100 |
| 0.299 | 0.169 | Cn1cc(C(=O)NC2CCN(C(c3ccc(C#N)cc3)c3cccnc3)CC2)cn1 (stereo not drawn) | 54.3 |
| 0.0305 | 0.017 | Fc1ccccc1N1CCC(NC(c2ccc(C(F)(F)F)cc2)c2cccnc2)CC1 (stereo not drawn) | 53.1 |
| 0.655 | 0.385 | Cn1cc(C(=O)N2CCC(NC(c3ccc(C(F)(F)F)cc3)c3cccnc3)CC2)cn1 (stereo not drawn) | > 100 |
| 0.0205 | 0.007 | N#Cc1ccccc1N1CCC(NC(c2ccc(C(F)(F)F)cc2)c2cccnc2)CC1 (stereo not drawn) | 52.3 |
| 0.807 | 0.327 | Cc1nc(C(=O)N2CCC(NC(c3ccc(C(F)(F)F)cc3)c3cccnc3)CC2)cs1 (stereo not drawn) | > 100 |
| 0.0315 | 0.009 | FC(F)(F)c1ccc(C(NC2CCN(c3ccccc3C(F)(F)F)CC2)c2cccnc2)cc1 (stereo not drawn) | 45.8 |
